Results reported in patent US6610697B1, “Substituted 2-aryl-3-(heteroaryl)-imidazo[1,2-a]pyrimidines, and related pharmaceutical compositions and methods” (Ortho-McNeil Pharmaceutical, Inc., priority 1999, dated 2003).

Assays:
TNF-α = experiment: PBMC whole cell assay (LPS/PBMC, TNF-α ELISA); assay type: cell-based; conditions: human PBMC, LPS stimulation overnight
Protocol: Representative compounds of the present invention were tested in an in vitro whole cell assay using peripheral blood mononuclear cells (“PBMC's”) which were obtained from human blood as follows. Freshly obtained venous blood was anticoagulated with heparin, diluted with an equal volume of phosphate buffered saline (“PBS”) and placed in a sterile tube or other container. Aliquots (30 mL) of this mixture were transferred to centrifuge tubes which were underlaid with Ficoll-Hypaque (15 mL). The prepared tubes were centrifuged at 400×g without braking for 30 min at room temperature. Approximately ½ to ⅔ of the platelet layer above the mononuclear cell band was removed with a pipette. The majority of the mononuclear cell layer was carefully removed using a pipette and these PBMC's were diluted with PBS and spun at 600×g for 15 min. The resulting PBMC's were washed with another portion of PBS and spun at 400×g for 10 min at room temperature. The recovered pellets were diluted in low endotoxin RPMI/1% FCS culture medium and gave a cell concentration of 0.5-2.0×10^6 PMBC/mL. A small volume of the suspension was removed for counting on a hemocytometer and the remaining preparation was centrifuged at 200×g for 15 min at room temperature. The recovered pelleted PMBC's were re-suspended in RPMI/1% FCS to a concentration of 1.67×10^6/mL.
To run the assay, the PBMC suspension (180 μL) was transferred to duplicate wells of a 96-well flat-bottom microtiter plate and incubated for 1 h at 37° C. A solution of test compound (10 μL, prepared at 20×the desired final concentration) was added to each well and the plate was incubated for 1 h at 37° C. A solution (10 μL) of LPS in RPMI/1% FCS (200 ng/mL) was added and the wells were incubated overnight at 37° C. The supernate (100 μL) was removed from each well and diluted with RPMI/1% FCS (400 μL). The samples were analyzed for TNF-α using a commercial ELISA kit (Genzyme).

[1] = tested on: LPS-induced TNF-α production; experiment: In vivo rodent assay, LPS-induced TNF-α production; conditions: Mus musculus; BALB/cJ female mice, oral 10 mg/kg, LPS 1 mg/kg i.p. 30 min after dosing, serum TNF-α 1 h later
Protocol: Mice (BALB/cJ females, Jackson Laboratories) were fasted for 30 min. prior to oral dosing with 5-10 mL/kg of a test compound at 5-50 mg/kg. Thirty minutes after dosing, the animals were injected intraperitoneally with LPS at 1 mg/kg and returned to their cages for 1 h. Animals were anesthetized by CO2, exsanguinated by cardiac puncture and whole blood collected (0.1-0.7 mL). The blood was allowed to clot and serum was transferred to a centrifuge tube. This sample was centrifuged, and serum was collected, aliquoted, and frozen at −80° C. Samples were tested by commercial ELISA's for TNF-α (Endogen for mouse TNF-α). The % inhibition of the test compounds was calculated by the following formula: % inhibition=[1-(sample-BKG)/(CTRL-BKG)]×100.

For `Nc1ccn2c(-c3ccncc3)c(-c3ccc(F)cc3)nc2n1` [Compound 1, 2-(4-fluorophenyl)-3-(4-pyridinyl)-imidazo[1,2-a]pyrimidin-7-amine], the IC50 (TNF-α) was 49 nM and the inhibition in vivo at 10 mg/kg [1] was 100%.

`Nc1ccn2c(-c3ccncc3)c(-c3cccc(F)c3)nc2n1` [Compound 2, 2-(3-fluorophenyl)-3-(4-pyridinyl)-imidazo[1,2-a]pyrimidin-7-amine] showed an IC50 (TNF-α) of 55 nM and an inhibition in vivo at 10 mg/kg [1] of 100%.

`Nc1ccn2c(-c3ccnc4ccccc34)c(-c3ccc(F)cc3)nc2n1` [Compound 3, 2-(4-fluorophenyl)-3-(4-quinolinyl)-imidazo[1,2-a]pyrimidin-7-amine] was tested, and the IC50 (TNF-α) was 333 nM and the inhibition in vivo at 10 mg/kg [1] was 26%.

Molecule `Nc1ccn2c(-c3ccncc3)c(-c3ccc(F)c(Cl)c3)nc2n1` [Compound 4, 2-(3-chloro-4-fluorophenyl)-3-(4-pyridinyl)-imidazo[1,2-a]pyrimidin-7-amine] has an IC50 (TNF-α) of 21 nM and an inhibition in vivo at 10 mg/kg [1] of 100%.

Molecule `Nc1ccn2c(-c3ccncc3)c(-c3ccccc3)nc2n1` [Compound 5, 2-phenyl-3-(4-pyridinyl)-imidazo[1,2-a]pyrimidin-7-amine] has an IC50 (TNF-α) of 55 nM and an inhibition in vivo at 10 mg/kg [1] of 100%.

With `Nc1ccn2c(-c3ccnc(NCc4ccccc4)c3)c(-c3ccc(F)cc3)nc2n1` [Compound 6, 2-(4-fluorophenyl)-3-[2-[(phenylmethyl)amino]4-pyridinyl]-imidazo[1,2-a]pyrimidin-7-amine] the IC50 (TNF-α) was 6 nM and the inhibition in vivo at 10 mg/kg [1] was 42%.

Molecule `Nc1ccn2c(-c3ccncc3)c(-c3cccc(C(F)(F)F)c3)nc2n1` [Compound 7, 3-(4-pyridinyl)-2-[3-(trifluoromethyl)phenyl]-imidazo[1,2-a]pyrimidin-7-amine] has an IC50 (TNF-α) of 35 nM and an inhibition in vivo at 10 mg/kg [1] of 99%.

Molecule `Nc1ccn2c(-c3ccnc(NCc4ccccc4)c3)c(-c3cccc(C(F)(F)F)c3)nc2n1` [Compound 8, 3-[2-[(phenylmethyl)amino]4-pyridinyl]-2-[3-(trifluoromethyl)phenyl]-imidazo[1,2-a]pyrimidin-7-amine] has an IC50 (TNF-α) of 4 nM and an inhibition in vivo at 10 mg/kg [1] of 19%.

In the case of `C[C@H](Nc1nccc(-c2c(-c3cccc(C(F)(F)F)c3)nc3nc(N)ccn23)n1)c1ccccc1` [Compound 9, 3-[2-[[(1S)-1-Phenylethyl]amino]4-pyrimidinyl]-2-[3-(trifluoromethyl)phenyl]imidazo[1,2-a]pyrimidin-7-amine], the IC50 (TNF-α) is reported as 0.5 nM and the inhibition in vivo at 10 mg/kg [1] is reported as 97%.

In the case of `CSc1nccc(-c2c(-c3ccc(F)cc3)nc3nc(N)ccn23)n1` [Compound 10, 2-(4-Fluorophenyl)-3-[2-(methylthio)-4-pyrimidinyl]imidazo[1,2-a]pyrimidin-7-amine], the IC50 (TNF-α) is reported as 37 nM and the inhibition in vivo at 10 mg/kg [1] is reported as 68%.

With `CSc1nccc(-c2c(-c3cccc(C(F)(F)F)c3)nc3nc(N)ccn23)n1` [Compound 11, 3-[2-(Methylthio)-4-pyrimidinyl]-2-[3-(trifluoromethyl)phenyl]imidazo[1,2-a]pyrimidin-7-amine] the IC50 (TNF-α) was 27 nM and the inhibition in vivo at 10 mg/kg [1] was 38%.

Molecule `CSc1nccc(-c2c(-c3cccc(F)c3)nc3nc(N)ccn23)n1` [Compound 12, 2-(3-Fluorophenyl)-3-[2-(methylthio)-4-pyrimidinyl]imidazo[1,2-a]pyrimidin-7-amine] has an IC50 (TNF-α) of 10 nM and an inhibition in vivo at 10 mg/kg [1] of 51%.

With `Nc1ccn2c(-c3ccncn3)c(-c3cccc(C(F)(F)F)c3)nc2n1` [Compound 13, 3-(4-Pyrimidinyl)-2-[3-(trifluoromethyl)phenyl]imidazo[1,2-a]pyrimidin-7-amine] the IC50 (TNF-α) was 278 nM and the inhibition in vivo at 10 mg/kg [1] was 85%.

Molecule `Nc1ccn2c(-c3ccnc(N4CCCCC4)n3)c(-c3ccccc3)nc2n1` [Compound 14, 2-Phenyl-3-[2-(1-piperidinyl)-4-pyrimidinyl]imidazo[1,2-a]pyrimidin-7-amine] has an IC50 (TNF-α) of 8 nM and an inhibition in vivo at 10 mg/kg [1] of 63%.

Molecule `CSc1nccc(-c2c(-c3ccccc3)nc3nc(N)ccn23)n1` [Compound 15, 3-[2-(Methylthio)-4-pyrimidinyl]-2-phenylimidazo[1,2-a]pyrimidin-7-amine] has an IC50 (TNF-α) of 28 nM and an inhibition in vivo at 10 mg/kg [1] of 23%.

With `Nc1ccn2c(-c3ccncn3)c(-c3ccccc3)nc2n1` [Compound 16, 2-Phenyl-3-(4-pyrimidinyl)imidazo[1,2-a]pyrimidin-7-amine] the IC50 (TNF-α) was 304 nM and the inhibition in vivo at 10 mg/kg [1] was 73%.

Work on `CS(=O)(=O)c1nccc(-c2c(-c3ccccc3)nc3nc(N)ccn23)n1` [Compound 17, 3-[2-(Methylsulfonyl)-4-pyrimidinyl]-2-phenylimidazo [1,2-a]pyrimidin-7-amine] yielded an IC50 (TNF-α) of 3410 nM.

`CS(=O)(=O)c1nccc(-c2c(-c3cccc(C(F)(F)F)c3)nc3nc(N)ccn23)n1` [Compound 18, 3-[2-(Methylsulfonyl)-4-pyrimidinyl]-2-[3-(trifluoromethyl)phenyl]imidazo[1,2-a]pyrimidin-7-amine] gave an IC50 (TNF-α) of 520 nM and an inhibition in vivo at 10 mg/kg [1] of 10%.

`C[C@H](Nc1nccc(-c2c(-c3ccccc3)nc3nc(N)ccn23)n1)c1ccccc1` [Compound 19, 2-Phenyl-3-[2-[[(1S)-1-phenylethyl]amino]4-pyrimidinyl]imidazo[1,2-a]pyrimidin-7-amine] showed an IC50 (TNF-α) of 0.4 nM and an inhibition in vivo at 10 mg/kg [1] of 100%.

`COc1ccc(CNc2nccc(-c3c(-c4ccccc4)nc4nc(N)ccn34)n2)cc1` [Compound 20, 3-[[[(4-Methoxyphenyl)methyl]amino]-4-pyrimidinyl]-2-phenylimidazo[1,2-a]pyrimidin-7-amine] showed an IC50 (TNF-α) of 14 nM.

In the case of `C[C@H](Nc1nccc(-c2c(-c3ccc(F)cc3)nc3nc(N)ccn23)n1)C1CCCCC1` [Compound 22, 3-[2-[[(1S)-1-Cyclohexylethyl]amino]-4-pyrimidinyl]-2-(4-fluorophenyl)imidazo[1,2-a]pyrimidin-7-amine], the IC50 (TNF-α) is reported as 1 nM and the inhibition in vivo at 10 mg/kg [1] is reported as 74%.

`COc1nccc(-c2c(-c3ccccc3)nc3nc(N)ccn23)n1` [Compound 23, 3-(2-Methoxy-4-pyrimidinyl)-2-phenylimidazo[1,2-a]pyrimidin-7-amine] gave an IC50 (TNF-α) of 90 nM and an inhibition in vivo at 10 mg/kg [1] of 87%.

Molecule `Nc1ccn2c(-c3ccncn3)c(-c3ccc(F)cc3)nc2n1` [Compound 24, 2-(4-Fluorophenyl)-3-(4-pyrimidinyl)imidazo[1,2-a]pyrimidin-7-amine] has an IC50 (TNF-α) of 199 nM and an inhibition in vivo at 10 mg/kg [1] of 91%.

`Nc1ccn2c(-c3ccncc3)c(-c3cccc(Cl)c3)nc2n1` [Compound 25, 2-(3-Chlorophenyl)-3-(4-pyridinyl)imidazo[1,2-a]pyrimidin-7-amine] was tested, and the IC50 (TNF-α) was 162 nM and the inhibition in vivo at 10 mg/kg [1] was 47%.
